Measurements taken from US20250215039A1, “NUCLEOSIDES FOR TREATING CANCER” (PRIMEFOUR THERAPEUTICS, INC., priority 2022, published 2025).
Like-named read-outs stand apart in the source and are kept apart here.

Test system: cancer cell lines
Test: Cancer cell proliferation activity (CellTiterGlo, 72 h)
Type: cell-based
Conditions: 72 h, 72 h, read-out: IC50 cell proliferation
Summary of the method: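 Cells seeded overnight at 37 °C, then dosed with compound at 0.1% final DMSO and incubated 72 h at 37 °C (5% or 10% CO2 by medium).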

## Nc1nc(F)nc2c1ncn2[C@H]1C[C@H](O)[C@@H](CO)O1 [compound 171, (2R,3S,5R)-5-(6-amino-2-fluoro-9H-purin-9-yl)-2-(hydroxymethyl)tetrahydrofuran-3-ol]
5637 (bladder)
  IC50: 950 nM
CLS439 (bladder)
  IC50: 2640 nM
HS729 (muscle)
  IC50: 440 nM
J82 (bladder)
  IC50: 1810 nM
JAR (placenta)
  IC50: 1600 nM
MT3 (breast)
  IC50: 230 nM
PANCI (pancreas)
  IC50: 5060 nM
PC3 (prostate)
  IC50: 280 nM
RD (muscle)
  IC50: 960 nM
T24 (bladder)
  IC50: 560 nM
Homo sapiens, 22Rv1, 72 h, 22RV1 (prostate)
  IC50: 2890 nM
Homo sapiens, 786-0, 72 h, 786O (kidney)
  IC50: 1570 nM
Homo sapiens, A204, 72 h, A204 (muscle)
  IC50: 190 nM
Homo sapiens, A549, 72 h, A549 (lung)
  IC50: 1330 nM
Homo sapiens, A673, 72 h, A673 (bone)
  IC50: 2530 nM
Homo sapiens, A2780, 72 h, A2780 (ovary)
  IC50: 1670 nM
Homo sapiens, A-375, 72 h, A375 (skin)
  IC50: 570 nM
Homo sapiens, A-431, 72 h, A431 (skin)
  IC50: 1240 nM
Homo sapiens, ACHN, ACHN (kidney)
  IC50: 1050 nM
Homo sapiens, ASPC1, 72 h, ASPC1 (pancreas)
  IC50: 320 nM
Homo sapiens, BT-20, 72 h, BT20 (breast)
  IC50: 2120 nM
Homo sapiens, BXPC-3, 72 h, BXPC3 (pancreas)
  IC50: 430 nM
Homo sapiens, C-33-A, C33A (endometrial)
  IC50: 410 nM
Homo sapiens, CAKI-1, 72 h, CAKI1 (kidney)
  IC50: 130 nM
Homo sapiens, COLO 205, 72 h, COLO205 (colon)
  IC50: 420 nM
Homo sapiens, COLO-678, 72 h, COLO678 (colon)
  IC50: 630 nM
Homo sapiens, Ca-Ski, CASKI (endometrial)
  IC50: 990 nM
Homo sapiens, Caco-2, 72 h, CACO2 (colon)
  IC50: 3520 nM
Homo sapiens, Calu-6, 72 h, CALU6 (lung)
  IC50: 400 nM
Homo sapiens, DLD-1, 72 h, DLD1 (colon)
  IC50: 1030 nM
Homo sapiens, DU-145, 72 h, DU145 (prostate)
  IC50: 340 nM
Homo sapiens, EFO-21, 72 h, EFO21 (ovary)
  IC50: 460 nM
Homo sapiens, EJ-28, 72 h, EJ28 (bladder)
  IC50: 1060 nM
Homo sapiens, Granta-519, 72 h, GRANTA-519 (hematological)
  IC50: 680 nM
Homo sapiens, HCT-15, 72 h, HCT15 (colon)
  IC50: 2010 nM
Homo sapiens, HCT-116, 72 h, HCT116 (colon)
  IC50: 1030 nM
Homo sapiens, HEK293, 72 h, HEK293 (kidney)
  IC50: 3610 nM
Homo sapiens, HL-60, 72 h, HL-60 (hematological)
  IC50: 230 nM
Homo sapiens, HT-29, 72 h, HT29 (colon)
  IC50: 700 nM
Homo sapiens, HT-1080, 72 h, HT1080 (connective tissue)
  IC50: 2790 nM
Homo sapiens, HeLa, HELA (endometrial)
  IC50: 310 nM
Homo sapiens, HepG2, 72 h, HEPG2 (liver)
  IC50: 2750 nM
Homo sapiens, Hs-578T, HS578T (breast)
  IC50: 1640 nM
Homo sapiens, IGROV-1, 72 h, IGROV1 (ovary)
  IC50: 1280 nM
Homo sapiens, IMR-90, 72 h, IMR90 (lung)
  IC50: 540 nM
Homo sapiens, JEG-3, 72 h, JEG3 (placenta)
  IC50: 2570 nM
Homo sapiens, JIMT-1, 72 h, JIMT1 (breast)
  IC50: 180 nM
Homo sapiens, K562, 72 h, K-562 (hematological)
  IC50: 5680 nM
Homo sapiens, Kasumi 1, 72 h, KASUMI-1 (hematological)
  IC50: 60 nM
Homo sapiens, L-363, 72 h, L-363 (hematological)
  IC50: 920 nM
Homo sapiens, LoVo, LOVO (colon)
  IC50: 440 nM
Homo sapiens, MCF7, 72 h, MCF7 (breast)
  IC50: 3060 nM
Homo sapiens, MDA-MB-231, 72 h, MDAMB231 (breast)
  IC50: 160 nM
Homo sapiens, MDA-MB-435, 72 h, MDAMB435 (skin)
  IC50: 2470 nM
Homo sapiens, MDA-MB-436, 72 h, MDAMB436 (breast)
  IC50: 620 nM
Homo sapiens, MDA-MB-468, 72 h, MDAMB468 (breast)
  IC50: 1440 nM
Homo sapiens, MG-63, 72 h, MG63 (bone)
  IC50: 1630 nM
Homo sapiens, MHH-ES-1, 72 h, MHHES1 (bone)
  IC50: 460 nM
Homo sapiens, MIA PaCa-2, 72 h, MIAPACA2 (pancreas)
  IC50: 2950 nM
Homo sapiens, MINO, MINO (hematological)
  IC50: 40 nM
Homo sapiens, MV4-11, 72 h, MV4-11 (hematological)
  IC50: 270 nM
Homo sapiens, NCI-H23, 72 h, NCI-H23 (lung)
  IC50: 2040 nM
Homo sapiens, NCI-H82, 72 h, NCIH82 (lung)
  IC50: 1600 nM
Homo sapiens, NCI-H292, 72 h, NCIH292 (lung)
  IC50: 2330 nM
Homo sapiens, NCI-H460, 72 h, NCIH460 (lung)
  IC50: 1950 nM
Homo sapiens, OVCAR-3, 72 h, OVCAR3 (ovary)
  IC50: 350 nM
Homo sapiens, OVCAR-4, 72 h, OVCAR4 (ovary)
  IC50: 1860 nM
Homo sapiens, PLC-PRF-5, 72 h, PLCPRF5 (liver)
  IC50: 2840 nM
Homo sapiens, Panc1005, 72 h, PANC1005 (pancreas)
  IC50: 660 nM
Homo sapiens, Ramos, RAMOS (hematological)
  IC50: 420 nM
Homo sapiens, SAOS-2, 72 h, SAOS2 (bone)
  IC50: 110 nM
Homo sapiens, SF-268, 72 h, SF268 (brain)
  IC50: 3020 nM
Homo sapiens, SF-295, 72 h, SF295 (brain)
  IC50: 3580 nM
Homo sapiens, SK-BR-3, 72 h, SKBR3 (breast)
  IC50: 140 nM
Homo sapiens, SK-HEP1, 72 h, SKHEP1 (liver)
  IC50: 280 nM
Homo sapiens, SK-LMS-1, 72 h, SKLMS1 (uterus)
  IC50: 3020 nM
Homo sapiens, SK-MEL-5, 72 h, SKMEL5 (skin; SKMELS [sic] in Table 9E)
  IC50: 1970 nM
Homo sapiens, SK-MEL-28, 72 h, SKMEL28 (skin)
  IC50: 980 nM
Homo sapiens, SK-N-AS, SKNAS (brain)
  IC50: 2550 nM
Homo sapiens, SK-N-SH, SKNSH (brain)
  IC50: 2260 nM
Homo sapiens, SK-OV-3, 72 h, SKOV3 (ovary)
  IC50: 510 nM
Homo sapiens, SNB-75, 72 h, SNB75 (brain)
  IC50: 1470 nM
Homo sapiens, SU-DHL10, 72 h, SU-DHL-10 (hematological)
  IC50: 730 nM
Homo sapiens, SU-DHL-6, 72 h, SU-DHL-6 (hematological)
  IC50: 980 nM
Homo sapiens, SW-620, 72 h, SW620 (colon)
  IC50: 680 nM
Homo sapiens, TE-671, 72 h, TE671 (muscle)
  IC50: 780 nM
Homo sapiens, THP-1, 72 h, THP-1 (hematological)
  IC50: 130 nM
Homo sapiens, U2OS, U20S (bone; U2OS in Table 9E)
  IC50: 960 nM
Homo sapiens, U-87 MG, U87MG (brain)
  IC50: 620 nM
Homo sapiens, UMUC3, 72 h, UMUC3 (bladder)
  IC50: 970 nM
Homo sapiens, UO-31, 72 h, UO31 (kidney)
  IC50: 420 nM
Homo sapiens, WSU-NHL, WSU-NHL (hematological)
  IC50: 340 nM
NCI-H358M, NCIH358M (lung)
  IC50: 60 nM
PBMC, PBMC (hematological)
  IC50: 150 nM
RD-ES, RDES (bone)
  IC50: 820 nM
